Where two headings read alike, the source gives them in different places.
How the values were obtained:
[1] = system: mamm. β1AR; conditions: reference mammalian tissues, cited from earlier work; for mamm. β1/β2: Ki ratio
[2] = target: mamm. β2AR; conditions: reference mammalian tissues; cited from earlier work
[3] = system: Huβ1AR; experiment: Competition binding against ICYP on E. coli expressing Huβ1AR (pSMLβ1); conditions: ratio of Ki on Huβ1AR and Huβ2AR expressed in E. coli
[4] = target: Huβ2AR (Homo sapiens, UniProt P07550); experiment: Competition binding against ICYP on E. coli expressing Huβ2AR (pSMLβ2)
[5] = target: Huβ1AR (Homo sapiens, UniProt P08588); experiment: Competition binding against ICYP on E. coli expressing Huβ1AR (pSMLβ1)
[6] = target: T1, human β2-adrenergic receptor (Homo sapiens, UniProt P07550); experiment: cell-based; type: binding
T1 construct: extending from the NcoI site to the DraI site which contained the coding region for the human β2-adrenergic receptor; β-galactosidase (lacZ product of λgt11, fused at the EcoRI site near the 3' end of lacZ) (N); linker Asp-Asp-Pro (acid-cleavable) (N); expressed in transfected cells; host or cells: E. coli Y1089 lysogenized with recombinant λgt11

Chain of Huβ1AR (Homo sapiens, UniProt P08588) (P08588 58-377 limits assumed): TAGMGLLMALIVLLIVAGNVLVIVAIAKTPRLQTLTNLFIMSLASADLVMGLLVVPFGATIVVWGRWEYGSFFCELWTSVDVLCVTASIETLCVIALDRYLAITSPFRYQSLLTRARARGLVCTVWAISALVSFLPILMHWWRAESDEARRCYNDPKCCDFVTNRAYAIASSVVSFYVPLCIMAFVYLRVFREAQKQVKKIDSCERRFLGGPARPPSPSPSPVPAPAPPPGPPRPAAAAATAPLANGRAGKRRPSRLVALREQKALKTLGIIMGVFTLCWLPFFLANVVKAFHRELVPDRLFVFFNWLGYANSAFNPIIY

| Molecule | mamm. β1/β2 [1] | Ki [1] | Ki [2] | E. coli Kiβ1/Kiβ2 [3] | Ki ([4]; read-out: Ki E. coli Huβ2AR, 10 pM ICYP as radioligand, Ki calculated from IC50) | Ki ([5]; read-out: Ki E. coli Huβ1AR, 10 pM ICYP as radioligand, Ki calculated from IC50) | Ki [6] | Ki [5] | Ki [4] |
| --- | --- | --- | --- | --- | --- | --- | --- | --- | --- |
| CS(=O)(=O)O.Cn1cc(C(F)(F)F)nc1-c1ccc(OCC(O)CNCCOc2ccc(O)c(C(N)=O)c2)cc1 (centres unmarked) [CGP 20712-A] | 0,003 | 3.24 nM | 982 nM | 0,0005 |  |  |  |  |  |
| Cc1ccc(OCC(O)C(C)NC(C)C)c2c1CCC2 (centres unmarked) [ICI 118,551] | 130 | 86 nM |  |  |  |  |  |  |  |
| OC(CNCC(O)C1CCc2cc(F)ccc2O1)C1CCc2cc(F)ccc2O1 (centres unmarked) [R67555] | 0,02 | 0.9 nM | 46 nM |  | 3.83 nM |  |  |  |  |
| CC(C)(C)NCC(O)c1cc(Cl)c(N)c(Cl)c1 (centres unmarked) [clembuterol] | 5,1 | 71 nM | 14 nM |  |  | 37 nM |  |  |  |
| CNC[C@H](O)c1ccc(O)c(O)c1 [epinephrine] | 4,7 | 1900 nM | 403 nM |  |  |  |  |  |  |
| NC[C@H](O)c1ccc(O)c(O)c1 [norepinephrine] | 1,49 | 2800 nM | 1880 nM |  |  |  |  |  |  |
| CCC(NC(C)C)C(O)c1ccc(O)c2[nH]c(=O)ccc12 (centres unmarked) [procaterol] |  |  |  | 84,1 |  |  | 40 ± 8 nM | 4650 nM | 55.3 nM |
| CC(C)NCC(O)COc1cccc2ccccc12 (centres unmarked) [propranolol] | 5,5 |  |  |  |  |  |  |  |  |
| CC(C)(Cc1ccccc1)NCC(O)c1ccc(O)c(NS(C)(=O)=O)c1 (centres unmarked) [zinterol] | 8,1 | 170 nM | 21 nM | 18,4 |  |  |  | 168 nM | 9.14 nM |
| (−) epinephrine |  |  |  |  |  |  | 4700 ± 1400 nM |  |  |

From patent US6645755B1, “VECTOR MODIFIED BY SEQUENCE CODING FOR A SEQUENCE OF AMINO ACIDS CONTAINED IN A MAMMALIAN PROTEIN HAVING THE BIOLOGICAL ACTIVITY OF A MEMBRANE RECEPTOR, EXPRESSION OF THIS SEQUENCE IN TRANSFORMED UNICELLULAR CULTURES BY MEANS OF THIS VECTOR, PROCEDURE FOR STUDYING LIGANDS RECOGNIZING THESE RECEPTORS” (Centre National de la Recherche Scientifique, priority 1988, dated 2003)
